One may read the inhibition as the drop in the measured response relative to a control, in per cent. The inhibition in vivo is the drop in the measured response relative to a control, in per cent. One may read the melting point as the temperature, or range, at which the solid turns liquid.

Data on 28 molecules can be found in paper PMC3661926 (Acta Neuropathologica, 2013).

Data set [1] has as its system cultured human peripheral lymphocytes.
The target in the next data set is T1, α-synuclein (α-syn) (Homo sapiens, UniProt P37840).
T1 construct: made in house
The data set is described as follows: α-synuclein in vitro oligomer formation assay (SIFT). The format is biochemical. The note with it: read-out: % inhibition α-syn SIFT. The procedure: Expression and purification of recombinant wild-type α-synuclein (α-syn) was performed according to established protocols. Fluorescent labelling of α-syn and quality control were performed as described.
The α-syn aggregation assay was conducted with minor modifications as published previously. […] The concentration of α-syn was approximately 20 nM. In all experiments, α-syn aggregation was induced by final concentrations of 1 % DMSO and 10 μM FeCl3. Compounds were diluted into the assay mixture from 10-fold stock solutions containing 10 % DMSO (v/v), resulting in a final concentration of 1 % DMSO in all samples. “Low control” measurements for threshold setting were obtained without FeCl3 and DMSO. Experiments were started by diluting the 5-fold stock solution of fluorescently labelled α-syn in 50 mM Tris-buffer, pH 7.0, containing 1 % DMSO, 10 μM FeCl3 and compounds in concentrations ranging from 1–10 μM.
Aggregation of α-syn was measured by scanning for intensely fluorescent targets (SIFT). […] Excitation power was 200 μW at 488 nm and 300 μW at 633 nm. Measurement time was 10 s. Scanning parameters were set to 100 μm scan path length, 50 Hz beam scanner frequency, and 2,000 μm positioning table movement. The frequency of specific combinations of “green” and “red” photon counts was recorded in a two-dimensional intensity distribution histogram, as described previously. Evaluation of SIFT data in two-dimensional intensity distribution histograms was performed by summing up the numbers of photons from high intensity bins using a two-dimensional SIFT software module (Evotec-Technologies). For threshold setting, non-aggregated reference samples were used. The photon count in bins above the threshold was considered aggregate signal.

Data set [2] deals with PrP^Sc (RML prion strain) (Mus musculus, UniProt P04925). The data set can be described thus: biochemical. To be noted: read-out: % inhibition PrP^Sc PMCA.
Chain of PrP^Sc (RML prion strain) (P04925 23-230 limits assumed): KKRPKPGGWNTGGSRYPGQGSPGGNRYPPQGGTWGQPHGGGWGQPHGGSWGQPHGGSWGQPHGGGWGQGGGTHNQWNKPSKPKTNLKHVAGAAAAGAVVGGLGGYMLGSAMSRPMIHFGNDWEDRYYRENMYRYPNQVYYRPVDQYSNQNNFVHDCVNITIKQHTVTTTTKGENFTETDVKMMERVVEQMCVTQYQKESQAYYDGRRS
The subject of another data set is RML scrapie. The data set is described as follows: whole plant or invertebrate. The format is in vivo, C57BL/6 mice. To be noted: for inhibition in vivo at 1 mg: in Mus musculus, po, 2880 h, read-out: % inhibition PrP^Sc in vivo (a); for % inhibition PrP^Sc in vivo (b): PrP^Sc level in spleen 35 days after i.p. infection, 34 days treatment with 1 mg compound oral in peanut butter.

For data set [3] the following is noted: mouse, in vivo, po.
A further data set relates to M1000. The note with it: mouse, in vivo, ip; cited from earlier work.
A further data set deals with 139A. To be noted: mouse, in vivo, cited from earlier work.
The subject of another data set is actin. The format is biochemical.
A further data set deals with RML. To be noted: mouse, in vivo, cited from earlier work.
For data set [4] the following is noted: in vivo; cited from earlier work.
A further data set deals with prion. The note with it: cited from earlier work.
Data set [5] concerns prion strains RML, ME7, 301C, sCJD, vCJD. The format is biochemical, mouse and human. To be noted: 1 μl of 10 mM compound solution in DMSO.
The mark [6] stands for this setting: relative to high control, 10 μM compound, 1 % DMSO, 10 μM FeCl3.

Read-outs that look alike come from different tables or passages of the source. Bounds are passed on as bounds.

In the case of `O=P1(N(CCCl)CCCl)NCCCO1` (centres unmarked) [cyclophosphamide, reference compound], in [1], the “chromosomal damage by positive controls” value is “significant damage”.
Consider `c1cc2c(cc1-c1cc(-c3ccc4c(c3)OCO4)[nH]n1)OCO2` [anle232b], for which the inhibition at 10 µM was < 10% on α-synuclein (α-syn) (setting [6]) and 26% in data set [2]. Moreover, in the data set on RML scrapie, the inhibition in vivo at 1 mg was 23%.
`FC(F)(F)c1cccc(-c2cc(-c3ccc4c(c3)OCO4)n[nH]2)c1` [anle236b] returned a conc. brain in data set [3] of 39.3 nmol/g. The inhibition at 10 µM (on α-synuclein (α-syn) (setting [6]); in data set [2]) was < 10% in each case. Besides, in the data set with RML scrapie, the inhibition in vivo at 1 mg is 12%.
The molecule `Fc1ccc(F)c(-c2cc(-c3ccc4c(c3)OCO4)n[nH]2)c1` displayed a melting point of 225 to 226 °C.
Still for that read-out and setting: the figure for `O=[N+]([O-])c1ccc(-c2cc(-c3cccc(Cl)c3)n[nH]2)cc1` is 275 to 276 °C.
In the case of `Cl.Nc1ccc(-c2cc(-c3cccc(Br)c3)[nH]n2)cc1` [sery384], in [3], the conc. brain is recorded as 13,9 nmol/g. Further, the inhibition at 10 µM stood at 99% at α-synuclein (α-syn) and 55% in [2]. In addition, the inhibition in vivo at 1 mg in the data set with RML scrapie is < 10%.
`Brc1ccc(-c2cc(-c3ccc4c(c3)OCO4)n[nH]2)cc1` [sery378b]: the conc. brain in [3] came out at 26 nmol/g. In addition, the inhibition at 10 µM on α-synuclein (α-syn) (setting [6]) stood at 74%; in [2] it was 34%. For the same molecule, the inhibition in vivo at 1 mg in the data set on RML scrapie was found to be 39%.
As to Na2CaCDTA, in the data set on M1000, the “Median/Mean* Survival Therapy” value is 189 days and the “difference of survival therapy vs control” value (“difference” below) was 20 days.
In the case of `Brc1cccc(-c2cc(-c3ccc4c(c3)CCO4)[nH]n2)c1` [sery312b], the conc. brain in data set [3] is on record as 3,6 nmol/g. Moreover, the inhibition at 10 µM on α-synuclein (α-syn) is < 10%; in [2] it was 42%. The inhibition in vivo at 1 mg in the data set with RML scrapie stood at 13%.
As to `Clc1cccc(-c2cc(-c3ccc4c(c3)OCO4)n[nH]2)c1` [sery335b, 3-(1,3-Benzodioxol-5-yl)-5-(3-chlorophenyl)-1H-pyrazole], in data set [3], the conc. brain was determined as 29.6 nmol/g. Further, on α-synuclein (α-syn) (setting [6]), the inhibition at 10 µM stood at 90%. In [2], the inhibition at 10 µM came out at 52%. For the same molecule, in the data set with RML scrapie, the “% inhibition PrP^Sc in vivo (b)” value stood at 46% and the inhibition in vivo at 1 mg is 68%.
Take `Fc1cccc(-c2nc(-c3ccc4c(c3)OCO4)no2)c1`: the melting point turned out to be 161 °C.
With `Brc1cccc(-c2cc(-c3ccc4[nH]cnc4c3)n[nH]2)c1` [sery417], in data set [3], the conc. brain came out at 0 nmol/g. Moreover, the inhibition at 10 µM is < 10% at α-synuclein (α-syn) (setting [6]) and 51% in data set [2]. Besides, in the data set on RML scrapie, the inhibition in vivo at 1 mg is < 10%.
Turning to `CC(CN(C)C)CN1c2ccccc2CCc2ccccc21` (centres unmarked) [Trimipramine], in the data set with 139A (ip, 10 mg/kg), the “Median/Mean* Survival Therapy” value is listed as 210 days and the “difference” value is listed as 40 days.
For `Br.Oc1cc(-c2cc(-c3cc(Br)cc(Br)c3)n[nH]2)cc(O)c1O` [anle145c], the “effect on actin polymerization” value with actin is “do not affect actin polymerization”.
As for `CC[C@H](C)C(=O)O[C@H]1C[C@H](O)C=C2C=C[C@H](C)[C@H](CC[C@@H](O)C[C@@H](O)CC(=O)O)[C@H]21` [Pravastatin], in the data set on 139A (po, 200 mg/kg), the “Median/Mean* Survival Therapy” value was 194 days and the “difference” value is given as 17 days.
Consider `Brc1cccc(-c2c[nH]c(-c3ccc4c(c3)OCO4)n2)c1` [sery345], for which the conc. brain in data set [3] is 16.6 nmol/g. Also, the inhibition at 10 µM is 57% at α-synuclein (α-syn) (setting [6]) and < 10% in [2]. Moreover, the inhibition in vivo at 1 mg in the data set with RML scrapie was < 10%.
With `Oc1ccc(-c2cc(-c3cccc(Br)c3)n[nH]2)cc1O` [anle138c], in the data set on actin, the “effect on actin polymerization” value was “do not affect actin polymerization”. Besides, the inhibition at 10 µM at α-synuclein (α-syn) (setting [6]) is 99%; in [2] it was 19%. Moreover, the inhibition in vivo at 1 mg with RML scrapie is < 10%.
Take `CO[C@@]12[C@H](COC(N)=O)C3=C(C(=O)C(C)=C(N)C3=O)N1C[C@@H]1N[C@@H]12` [Mitomycin C, reference compound]: in data set [1], the “chromosomal damage by positive controls” value is reported as “significant damage”.
Turning to `Nc1ccc(-c2cc(-c3ccc(Cl)cc3)[nH]n2)cc1`, the melting point fell in the range of 213 to 214 °C.
Take `CCC(C)(C)C(=O)O[C@H]1C[C@@H](C)C=C2C=C[C@H](C)[C@H](CC[C@@H]3C[C@@H](O)CC(=O)O3)[C@H]21` [Simvastatin]: in the data set on RML (po, 20 mg/kg), the “Median/Mean* Survival Therapy” value was 167 days and the “difference” value is 19 days.
Turning to `COc1cc(/C=C/C(=O)CC(=O)/C=C/c2ccc(O)c(OC)c2)ccc1O` [Curcumin], in the data set with 139A (po, 50 mg/kg), the “Median/Mean* Survival Therapy” value is 208 days and the “difference” value was 12 days.
Turning to `OCCN1CCN(CCCN2c3ccccc3Sc3ccc(C(F)(F)F)cc32)CC1` [Fluphenazine], in the data set with 139A (ip, 10 mg/kg), the “Median/Mean* Survival Therapy” value was 205 days and the “difference” value was 35 days.
Regarding `CCN(CC)CCCC(C)Nc1c2ccc(Cl)cc2nc2ccc(OC)cc12` (centres unmarked) [quinacrine], the “concentrations reached in the brain” value in data set [4] is listed as “does not reach sufficient concentrations in the brain”. Moreover, the “anti-prion activity in cell culture” value in the data set with prion is on record as “high anti-prion activity in cell culture”.
As for `C=CC[C@@H]1/C=C(\C)C[C@H](C)C[C@H](OC)[C@H]2O[C@@](O)(C(=O)C(=O)N3CCCC[C@H]3C(=O)O[C@H](/C(C)=C/[C@@H]3CC[C@@H](O)[C@H](OC)C3)[C@H](C)[C@@H](O)CC1=O)[C@H](C)C[C@@H]2OC` [Tacrolimus], in the data set with RML (ip, 5 mg/kg), the “Median/Mean* Survival Therapy” value is reported as 35 days and the “difference” value was 9 days.
With `Ic1cccc(-c2cc(-c3ccc4c(c3)OCO4)n[nH]2)c1` [anle197b], the values for the inhibition at 10 µM (at α-synuclein (α-syn) (setting [6]); in data set [2]) were < 10% and 16%, respectively. Further, in the data set with RML scrapie, the “% inhibition PrP^Sc in vivo (b)” value is <10^b %.
Turning to `CN(C)c1ccc(-c2cc(-c3cccc(Br)c3)n[nH]2)cc1` [anle253b], the “effect on actin polymerization” value in the data set with actin is given as “do not affect actin polymerization”. Moreover, in [3], the conc. brain was found to be 2.1 nmol/g. Moreover, the inhibition at 10 µM at α-synuclein (α-syn) (setting [6]) stood at 50%; in data set [2], 80%. Moreover, the inhibition in vivo at 1 mg in the data set on RML scrapie came to 59%.
Regarding `Brc1ccccc1-c1cc(-c2ccc3c(c2)OCO3)n[nH]1` [anle234b], the “inhibitory activity in PMCA, all prion strains tested” value in [5] is “inactive”. In [3], this molecule returned a conc. brain of 32.1 nmol/g. Further, the inhibition at 10 µM (on α-synuclein (α-syn) (setting [6]); in data set [2]) was < 10% each time. Further, in the data set with RML scrapie, the inhibition in vivo at 1 mg was < 10%.
As for `Fc1cccc(-c2cc(-c3ccc4c(c3)OCO4)n[nH]2)c1` [anle186b], the conc. brain in data set [3] is recorded as 31.1 nmol/g. For the same molecule, the inhibition at 10 µM at α-synuclein (α-syn) (setting [6]) was < 10%; in data set [2] it was 48%. In addition, in the data set on RML scrapie (PrP^Sc level in brain 106 days after i.c. infection, treatment 24 days: 14 days i.p. 0.84 mg, 2 × 5 days oral gavage 1 mg), the “% inhibition PrP^Sc in vivo (c)” value is on record as 30^c %. Moreover, in the data set with RML scrapie (from 80 dpi: 14 days i.p. 0.84 mg, 2 x 5 days gavage 1 mg, measured at 95 and 106 dpi), the “change of PrPSc levels in brain, mixed application scheme” value is on record as “slight reduction of PrPSc accumulation”.
